For 17 molecules, IC50 results are on record in patent publication US20250236639A1, “NEUROACTIVE STEROIDS AND COMPOSITIONS THEREOF” (Sage Therapeutics, Inc., priority 2019, published 2025).

SMILES strings stand for the structures. pIC50: −log10 of the molar value. A value given as a limit tells only on which side of the number the result lay.

The assay has as its target GABAA receptor. The experiment in a line: Steroid inhibition of [35S]-TBPS binding, rat brain cortical membranes. Particulars: 3 nM [35S]-TBPS, in the presence of 5 mM GABA. The procedure:
[^35S]-t-Butylbicyclophosphorothionate (TBPS) binding assays using rat brain cortical membranes in the presence of 5 mM GABA has been described (Gee et al, J. Pharmacol. Exp. Ther. 1987, 241, 346-353; Hawkinson et al, Mol. Pharmacol. 1994, 46, 977-985; Lewin, A. H et al., Mol. Pharmacol. 1989, 35, 189-194).
Briefly, cortices are rapidly removed following decapitation of carbon dioxide-anesthetized Sprague-Dawley rats (200-250 g). The cortices are homogenized in 10 volumes of ice-cold 0.32 M sucrose using a glass/teflon homogenizer and centrifuged at 1500×g for 10 min at 4° C. The resultant supernatants are centrifuged at 10,000×g for 20 min at 4° C. to obtain the P2 pellets. The P2 pellets are resuspended in 200 mM NaCl/50 mM Na—K phosphate pH 7.4 buffer and centrifuged at 10,000×g for 10 min at 4° C. This washing procedure is repeated twice and the pellets are resuspended in 10 volumes of buffer. Aliquots ([…]) of the membrane suspensions are incubated with 3 nM [^35S]-TBPS and […] aliquots of test drug dissolved in dimethyl sulfoxide (DMSO) (final 0.5%) in the presence of 5 mM GABA. The incubation is brought to a final volume of 1.0 mL with buffer. Nonspecific binding is determined in the presence of […] and ranged from 15 to 25%. Following a 90 min incubation at room temp, the assays are terminated by filtration through glass fiber filters (Schleicher and Schuell No. 32) using a cell harvester (Brandel) and rinsed three times with ice-cold buffer. Filter bound radioactivity is measured by liquid scintillation spectrometry. Non-linear curve fitting of the overall data for each drug averaged for each concentration is done using Prism (GraphPad). […] The concentration of test compound producing 50% inhibition (IC50) of specific binding and the maximal extent of inhibition (Imax) are determined for the individual experiments with the same model used for the overall data and then the means±SEM.s of the individual experiments are calculated.
Various compounds are or can be screened to determine their potential as modulators of [^35S]-TBPS binding in vitro. These assays are or can be performed in accordance with the above
In the case of `C[C@@]1(O)CC[C@H]2[C@H](CC[C@@H]3[C@@H]2CC[C@]2(C)[C@@H](C4(Cn5cc(C#N)cn5)CC4)CC[C@@H]32)C1` [Compound 39, 1-((1-((3R,5R,8R,9R,10S,13S,14S,17S)-3-hydroxy-3,13-dimethylhexadecahydro-1H-cyclopenta[a]phenanthren-17-yl)cyclopropyl)methyl)-1H-pyrazole-4-carbonitrile], the pIC50 is over 7.00.

On to `COC[C@@]1(O)CC[C@H]2[C@H](CC[C@@H]3[C@@H]2CC[C@]2(C)[C@@H](C4(Cn5cc(C#N)cn5)COC4)CC[C@@H]32)C1` [Compound 40, 1-((3-((3R,5R,8R,9R,10S,13S,14S,17S)-3-hydroxy-3-(methoxymethyl)-13-methylhexadecahydro-1H-cyclopenta[a]phenanthren-17-yl)oxetan-3-yl)methyl)-1H-pyrazole-4-carbonitrile], for which the pIC50 is over 7.00. Take `CC(C)(Cn1cc(C#N)cn1)[C@H]1CC[C@H]2[C@@H]3CC[C@@H]4C[C@](C)(O)CC[C@@H]4[C@H]3CC[C@]12C` [Compound 41, 1-(2-((3R,5R,8R,9R,10S,13S,14S,17S)-3-hydroxy-3,13-dimethylhexadecahydro-1H-cyclopenta[a]phenanthren-17-yl)-2-methylpropyl)-1H-pyrazole-4-carbonitrile]: the pIC50 is over 7.00. For `CC[C@]12CC[C@](O)(COC)C[C@H]1CC[C@H]1[C@@H]3CC[C@H]([C@](C)(O)Cn4cc(C#N)cn4)[C@@]3(C)CC[C@@H]12` [Compound 42, 1-((S)-2-((3R,5R,8S,9S,10S,13S,14S,17S)-10-ethyl-3-hydroxy-3-(methoxymethyl)-13-methylhexadecahydro-1H-cyclopenta[a]phenanthren-17-yl)-2-hydroxypropyl)-1H-pyrazole-4-carbonitrile], the pIC50 was over 7.00. Consider `CC[C@]12CC[C@](O)(COC)C[C@H]1CC[C@H]1[C@@H]3CC[C@H]([C@@](C)(O)Cn4cc(C#N)cn4)[C@@]3(C)CC[C@@H]12` [Compound 43, 1-((R)-2-((3R,5R,8S,9S,10S,13S,14S,17S)-10-ethyl-3-hydroxy-3-(methoxymethyl)-13-methylhexadecahydro-1H-cyclopenta[a]phenanthren-17-yl)-2-hydroxypropyl)-1H-pyrazole-4-carbonitrile], for which the pIC50 is over 7.00. Consider `CCC[C@@]1(O)CC[C@@]2(CC)[C@H](CC[C@H]3[C@@H]4CC[C@H]([C@](C)(O)Cn5cc(C#N)cn5)[C@@]4(C)CC[C@@H]32)C1` [Compound 44, 1-((S)-2-((3R,5R,8S,9S,10S,13S,14S,17S)-10-ethyl-3-hydroxy-13-methyl-3-propylhexadecahydro-1H-cyclopenta[a]phenanthren-17-yl)-2-hydroxypropyl)-1H-pyrazole-4-carbonitrile], for which the pIC50 was over 7.00. Regarding `CCC[C@@]1(O)CC[C@@]2(CC)[C@H](CC[C@H]3[C@@H]4CC[C@H]([C@@](C)(O)Cn5cc(C#N)cn5)[C@@]4(C)CC[C@@H]32)C1` [Compound 45, 1-((R)-2-((3R,5R,8S,9S,10S,13S,14S,17S)-10-ethyl-3-hydroxy-13-methyl-3-propylhexadecahydro-1H-cyclopenta[a]phenanthren-17-yl)-2-hydroxypropyl)-1H-pyrazole-4-carbonitrile], the pIC50 is 6.00 to 7.00.

On to `C[C@@]1(O)CC[C@H]2[C@H](CC[C@@H]3[C@@H]2CC[C@@]2(C)[C@H]3[C@H](C3CC3)C[C@@H]2[C@@](C)(O)Cn2cc(C#N)cn2)C1` [Compound 46, 1-((R)-2-((3R,5R,8R,9R,10S,13S,14S,15S,17S)-15-cyclopropyl-3-hydroxy-3,13-dimethylhexadecahydro-1H-cyclopenta[a]phenanthren-17-yl)-2-hydroxypropyl)-1H-pyrazole-4-carbonitrile], for which the pIC50 is over 7.00. With `C[C@@]1(O)CC[C@H]2[C@H](CC[C@@H]3[C@@H]2CC[C@@]2(C)[C@H]3[C@H](C3CC3)C[C@@H]2[C@](C)(O)Cn2cc(C#N)cn2)C1` [Compound 47, 1-((S)-2-((3R,5R,8R,9R,10S,13S,14S,15S,17S)-15-cyclopropyl-3-hydroxy-3,13-dimethylhexadecahydro-1H-cyclopenta[a]phenanthren-17-yl)-2-hydroxypropyl)-1H-pyrazole-4-carbonitrile] the figure was over 7.00; with `C[C@@H]1C[C@H]([C@](C)(O)Cn2cc(C#N)cn2)[C@@]2(C)CC[C@H]3[C@@H](CC[C@@H]4C[C@](C)(O)CC[C@@H]43)[C@H]12` [Compound 48, 1-((S)-2-hydroxy-2-((3R,5R,8R,9R,10S,13S,14S,15R,17S)-3-hydroxy-3,13,15-trimethylhexadecahydro-1H-cyclopenta[a]phenanthren-17-yl)propyl)-1H-pyrazole-4-carbonitrile], over 7.00; with `C[C@@H]1C[C@H]([C@@](C)(O)Cn2cc(C#N)cn2)[C@@]2(C)CC[C@H]3[C@@H](CC[C@@H]4C[C@](C)(O)CC[C@@H]43)[C@H]12` [Compound 49, 1-((R)-2-hydroxy-2-((3R,5R,8R,9R,10S,13S,14S,15R,17S)-3-hydroxy-3,13,15-trimethylhexadecahydro-1H-cyclopenta[a]phenanthren-17-yl)propyl)-1H-pyrazole-4-carbonitrile], over 7.00. With `C[C@H]1C[C@H]2[C@H](CC[C@@H]3[C@@H]2CC[C@@]2(C)[C@H]3CC[C@@H]2[C@](C)(O)Cn2cc(C#N)cn2)C[C@]1(C)O` [Compound 50, 1-((S)-2-hydroxy-2-((2S,3S,5R,8R,9R,10S,13S,14S,17S)-3-hydroxy-2,3,13-trimethylhexadecahydro-1H-cyclopenta[a]phenanthren-17-yl)propyl)-1H-pyrazole-4-carbonitrile] the figure was over 7.00; with `C[C@H]1C[C@H]2[C@H](CC[C@@H]3[C@@H]2CC[C@@]2(C)[C@H]3CC[C@@H]2[C@@](C)(O)Cn2cc(C#N)cn2)C[C@]1(C)O` [Compound 51, 1-((R)-2-hydroxy-2-((2S,3S,5R,8R,9R,10S,13S,14S,17S)-3-hydroxy-2,3,13-trimethylhexadecahydro-1H-cyclopenta[a]phenanthren-17-yl)propyl)-1H-pyrazole-4-carbonitrile], over 7.00; with `C[C@@H]1C[C@H]2[C@H](CC[C@@H]3[C@@H]2CC[C@@]2(C)[C@H]3CC[C@@H]2[C@](C)(O)Cn2cc(C#N)cn2)C[C@]1(C)O` [Compound 52, 1-((S)-2-hydroxy-2-((2R,3S,5R,8R,9R,10S,13S,14S,17S)-3-hydroxy-2,3,13-trimethylhexadecahydro-1H-cyclopenta[a]phenanthren-17-yl)propyl)-1H-pyrazole-4-carbonitrile], over 7.00. For `C[C@@H]1C[C@H]2[C@H](CC[C@@H]3[C@@H]2CC[C@@]2(C)[C@H]3CC[C@@H]2[C@@](C)(O)Cn2cc(C#N)cn2)C[C@]1(C)O` [Compound 53, 1-((R)-2-hydroxy-2-((2R,3S,5R,8R,9R,10S,13S,14S,17S)-3-hydroxy-2,3,13-trimethylhexadecahydro-1H-cyclopenta[a]phenanthren-17-yl)propyl)-1H-pyrazole-4-carbonitrile], the pIC50 is 6.00 to 7.00. With `COC[C@@]1(O)CC[C@@]2(C)[C@H](CC[C@@H]3[C@@H]2CC[C@@]2(C)[C@H]3CC[C@@H]2[C@@](C)(Cn2cc(C#N)cn2)OC)C1` [Compound 54, 1-((S)-2-((3R,5R,8R,9S,10S,13S,14S,17S)-3-hydroxy-3-(methoxymethyl)-10,13-dimethylhexadecahydro-1H-cyclopenta[a]phenanthren-17-yl)-2-methoxypropyl)-1H-pyrazole-4-carbonitrile] the figure was 6.00 to 7.00; with `COC[C@@]1(O)CC[C@@]2(C)[C@H](CC[C@@H]3[C@@H]2CC[C@@]2(C)[C@H]3CC[C@@H]2[C@](C)(Cn2cc(C#N)cn2)OC)C1` [Compound 55, 1-((R)-2-((3R,5R,8R,9S,10S,13S,14S,17S)-3-hydroxy-3-(methoxymethyl)-10,13-dimethylhexadecahydro-1H-cyclopenta[a]phenanthren-17-yl)-2-methoxypropyl)-1H-pyrazole-4-carbonitrile], 6.00 to 7.00.
